Source: patent US7208526B2, “Styrylsulfonamides” (Hoffmann-La Roche Inc., priority 2005, dated 2007)
Where a name gives a salt, the structure may show the parent alone.

Each compound was assayed on HCT 116 cells (human colon carcinoma, ATCC-No. CCl-247) (assay: Viability assay in HCT 116 cells (CellTiter-Glo Luminescent Cell Viability Assay)). Conditions: 10 concentrations 30 μM to 0.0015 μM, incubation 120 h (5 days), luminescence (ATP), triplicate.
Assay type: cell-based
Source text: Viability Assay in HCT 116 Cells
This assay is a homogeneous method of determining the number of viable cells in culture based on quantitation of the ATP present, an indicator of metabolically active cells. The assay is designed for use with multiwell formats, making it ideal for automated high-throughput screening (HTS), cell proliferation and cytotoxicity assays. The homogeneous assay procedure involves adding a single reagent (containing luciferase, luciferan substrate, and buffer) directly to cells cultured in serum-supplemented medium. Cell washing, removal of medium and multiple pipetting steps are not required. The system detects as few as 15 cells/well in a 384-well format in 10 minutes after adding reagent and mixing.
The homogeneous “add-mix-measure” format results in cell lysis and generation of a luminescent signal proportional to the amount of ATP present. The amount of ATP is directly proportional to the number of cells present in culture. The above-referenced assay generates a “glow-type” luminescent signal, produced by the luciferase reaction, which has a half-life generally greater than five hours, depending on cell type and medium used. The extended half-life eliminates the need to use reagent injectors and provides flexibility for continuous or batch mode processing of multiple plates. The unique homogeneous format avoids errors that may be introduced by other ATP measurement methods that require multiple steps.
For the assay the cells were seeded in 384 well plates, 1000 cells per well, in the same medium. […] After 5 days the viability assay was done according to the instructions of the manufacturer. In brief: the cell-plate was equilibrated to room temperature for approximately 30 minutes and then reagent (containing luciferase, luciferan substrate, and buffer) was added. The contents were carefully mixed for 15 minutes to induce cell lysis. After 45 minutes the luminescent signal was measured in Victor 2, (scanning multiwell spectrophotometer, Wallac).
In order to achieve a final concentration of 30 μM as highest concentration […] of 10 mM compound stock solution were added directly to 163 μl media. Then step e) of the dilution procedure described below, was followed.
Analysis: • Add 30 μl of reagent containing luciferase, luciferan substrate, and buffer per well, • shake 15 minutes at room temperature • incubate further 45 minutes at room temperature without shaking
Measurement: • Victor 2 scanning multiwell spectrophotometer (Wallac), Luminescence mode (0.5 sec/read, 477 nm) • Determine IC50 using a non-linear curve fit (XLfit® software [ID Business Solution Ltd., Guilford, Surrey, UK])

IC50 [µM] | Structure (SMILES)
0.5 to 15 | O=C(NS(=O)(=O)/C=C/c1ccc(OC(F)(F)F)cc1)c1ccc(F)cc1Br [Example 4-22, (E)-2-(4-Trifluoromethoxyphenyl)-ethenesulfonic acid 2-bromo-4-fluoro-benzoylamide; sodium salt]
0.5 to 15 | COc1cccc(/C=C/S(=O)(=O)NC(=O)c2ccc(Br)cc2Cl)c1 [Example 4-25, (E)-2-(3-Methoxy-phenyl)-ethenesulfonic acid 4-bromo-2-chloro-benzoylamide; sodium salt]
0.5 to 15 | O=C(NS(=O)(=O)/C=C/c1ccccc1Cl)c1ccc(Br)cc1Cl [Example 4-28, (E)-2-(2-Chloro-phenyl)-ethenesulfonic acid 4-bromo-2-chloro-benzoylamide; sodium salt]
0.5 to 15 | Cc1ccc(C(=O)NS(=O)(=O)/C=C/c2ccc(Cl)c(Cl)c2)c(C)c1 [Example 4-34, (E)-2-(3,4-Dichloro-phenyl)-ethenesulfonic acid 2,4-dimethyl-benzoylamide; sodium salt]
0.5 to 15 | Cc1cc(Br)ccc1C(=O)NS(=O)(=O)/C=C/c1ccc(C(F)(F)F)cc1 [Example 4-35, (E)-2-(4-Trifluoromethyl-phenyl)-ethenesulfonic acid 4-bromo-2-methyl-benzoylamide; sodium salt]
0.5 to 15 | Cc1ccc(C(=O)NS(=O)(=O)/C=C/c2ccc(OC(F)(F)F)cc2)c(Br)c1 [Example 4-37, (E)-2-(4-Trifluoromethoxyphenyl)-ethenesulfonic acid 2-bromo-4-methyl-benzoylamide; sodium salt]
0.5 to 15 | Cc1ccc(C(=O)NS(=O)(=O)/C=C/c2ccc(C(F)(F)F)cc2)c(C)c1 [Example 4-40, (E)-2-(4-Trifluoromethyl-phenyl)-ethenesulfonic acid 2,4-dimethyl-benzoylamide; sodium salt]
0.5 to 15 | COc1cc(Br)ccc1C(=O)NS(=O)(=O)/C=C/c1ccccc1 [Example 5-1, (E)-2-Phenyl-ethenesulfonic acid 4-bromo-2-methoxy-benzoylamide]
0.5 to 15 | Cc1ccc(C(=O)NS(=O)(=O)/C=C/c2ccccc2)c(C(F)(F)F)c1 [Example 5-2, (E)-2-Phenyl-ethenesulfonic acid 4-methyl-2-trifluoromethyl-benzoylamide]
0.5 to 15 | COc1cc(F)ccc1C(=O)NS(=O)(=O)/C=C/c1ccccc1 [Example 5-3, (E)-2-Phenyl-ethenesulfonic acid 4-fluoro-2-methoxy-benzoylamide]
0.5 to 15 | O=C(NS(=O)(=O)/C=C/c1ccccc1)c1ccc(Cl)cc1Br [Example 5-4, (E)-2-Phenyl-ethenesulfonic acid 2-bromo-4-chloro-benzoylamide]
0.5 to 15 | COc1cc(C(F)(F)F)ccc1C(=O)NS(=O)(=O)/C=C/c1ccccc1 [Example 5-6, (E)-2-Phenyl-ethenesulfonic acid 2-methoxy-4-trifluoromethyl-benzoylamide]
0.5 to 15 | COc1cc(Cl)ccc1C(=O)NS(=O)(=O)C=Cc1ccccc1 [Example 6-1, 2-Phenyl-ethenesulfonic acid 4-chloro-2-methoxy-benzoylamide]
0.5 to 15 | O=C(NS(=O)(=O)/C=C/c1ccccc1)c1ccc(F)cc1Br [Example 6-2, (E)-2-Phenyl-ethenesulfonic acid 2-bromo-4-fluoro-benzoylamide; sodium salt]
0.5 to 15 | Cc1ccc(C(=O)NS(=O)(=O)/C=C/c2ccccc2)c(Br)c1 [Example 6-3, (E)-2-Phenyl-ethenesulfonic acid 2-bromo-4-methyl-benzoylamide; sodium salt]
0.5 to 15 | O=C(NS(=O)(=O)/C=C/c1ccccc1)c1ccc(Br)cc1Cl [Example 6-5, (E)-2-Phenyl-ethenesulfonic acid 4-bromo-2-chloro-benzoylamide; sodium salt]
0.5 to 15 | Cc1cc(Cl)ccc1C(=O)NS(=O)(=O)/C=C/c1ccccc1 [Example 6-6, (E)-2-Phenyl-ethenesulfonic acid 4-chloro-2-methyl-benzoylamide; sodium salt]

Structure (SMILES) | IC50 [µM]
COc1ccccc1/C=C/S(=O)(=O)NC(=O)c1ccc(C)cc1C [Example 4-31, (E)-2-(2-Methoxy-phenyl)-ethenesulfonic acid 2,4-dimethyl-benzoylamide; sodium salt] | 0.5 to 15
